Reference: article PMC4240550 (PLoS ONE, 2014)
Several values for one entry are separate records, joined by “and”; a condition that tells them apart may be missing. Identical values can stand only once. Like-named read-outs stand apart in the source and are kept apart here.

Tests used:
LecB [1] = biological target: T1, LecB (Pseudomonas aeruginosa, UniProt Q9HYN5); settings: for N: ITC stoichiometry; for difference in Kd / binding affinity from the equatorial methyl group: microcalorimetry, vs analog lacking the methyl group (4 vs 5; 3 vs 7)
LecB [2] = biological target: T1, LecB; settings: ITC; cited from earlier work
LecB [3] = biological target: T1, LecB; experiment: biochemical; format: binding; settings: IC50, fluorescence polarization, TBS/Ca pH 7.4; mean ± SD of minimum three independent measurements of triplicates
LecB [4] = biological target: T1, LecB; experiment: biochemical
[5] = validation titration of LecB (56.1 µM) with 1 (700 µM)
[6] = 25°C, mean ± SD of minimum three titrations (5: indirect titration with 3, two titrations)
[7] = mean ± SD of minimum three titrations (5: indirect titration with 3, two titrations)

T1 sequence (Q9HYN5 entry or part of it): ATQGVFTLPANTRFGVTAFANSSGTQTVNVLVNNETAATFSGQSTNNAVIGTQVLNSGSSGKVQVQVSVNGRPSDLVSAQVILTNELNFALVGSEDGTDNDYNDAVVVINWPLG

SMILES | difference in Gibbs energy (LecB [1]; methyl α-L-fucoside (1) compared with 1-deoxy L-fucose (3)) [kcal/mol] | ΔG (LecB [1]; [5]) [kcal/mol] | ΔH (LecB [1]; [5]) [kcal/mol] | -TΔS (LecB [2]) [kcal/mol] | ΔH (LecB [2]) [kcal/mol] | IC50 (LecB [3]) | -TΔS (LecB [1]; [6]) [kcal/mol] | ΔG (LecB [1]; [6]) [kcal/mol] | ΔH (LecB [1]; [6]) [kcal/mol] | N (LecB [1]; [7]) | difference in Kd / binding affinity from the equatorial methyl group (LecB [1]) | Kd (LecB [4]) [µM] | Kd (LecB [2]) [µM] | ΔG (LecB [2]) [kcal/mol]
CO[C@@H]1O[C@@H](C)[C@@H](O)[C@@H](O)[C@@H]1O [compound 1, methyl α-L-fucoside, reference compound] | -0.359 | -8.525 | -9.257 | 1.17 | -9.87 | – | – | – | – | – | – | – | – | –
CO[C@H]1O[C@H](CO)[C@@H](O)[C@H](O)[C@@H]1O [compound 2, methyl α-D-mannoside] | – | – | – | -1.41 | -4.25 | – | – | – | – | – | – | – | – | –
CC1OCC(O)C(O)C1O [compound 3, 1-deoxy L-fucose] | – | – | – | – | – | 1.6 ± 0.7 µM | 0.327 ± 0.263 | -8.34 ± 0.072 | -8.68 ± 0.22 | 1.07 ± 0.03 | 4- to 6 fold | 0.77 ± 0.1 | – | –
C[C@@H]1O[C@H](CO)[C@@H](O)[C@H](O)[C@@H]1O [compound 4, β-L-fucopyranosyl methanol] | – | – | – | – | – | 23 µM and 22.9 µM | -0.588 ± 0.335 | -6.57 ± 0.239 | -5.98 ± 0.382 | 0.86 ± 0.1 | 4- to 6 fold | 16.1 | – | –
OC[C@H]1OC[C@@H](O)[C@@H](O)[C@@H]1O [compound 5, 1-deoxy D-mannose] | – | – | – | – | – | 104 µM | -1.41 ± 0.382 | -5.69 ± 0.22 | -4.28 ± 0.14 | 0.87 ± 0.18 | – | 69.1 ± 25 | – | –
C[C@@H]1O[C@H](C)[C@@H](O)[C@H](O)[C@@H]1O [compound 6, β-L-fucopyranosyl methane] | – | – | – | – | – | 21 µM and 20.6 µM | -0.308 ± 0.43 | -6.5 ± 0.072 | -6.19 ± 0.382 | 0.86 ± 0.2 | – | 16.9 ± 1.9 | – | –
OC1[C@H](O)COC[C@H]1O [compound 7, 1-deoxy D-arabinose] | – | – | – | – | – | 9.7 µM and 9.65 µM | 1.14 ± 0.574 | -7.29 ± 0.072 | -8.44 ± 0.574 | 0.81 ± 0.1 | – | 4.46 ± 0.7 | – | –
CO[C@@H]1OC[C@@H](O)[C@@H](O)[C@@H]1O [compound 13, methyl β-D-arabinoside] | – | – | – | 1.29 | -9.06 | 3.4 µM | – | – | – | – | – | – | 1.7 | -7.89
